Measured values published in patent publication US7611832B2, “Human G protein-coupled receptor and modulators thereof for the treatment of ischemic heart disease and congestive heart failure” (Arena Pharmaceuticals, Inc., priority 2002, dated 2009).

Assays:
[1] = tested on: RUP41 mRNA in NRVMs; test: Northern blot of RUP41 mRNA in NRVMs treated with hypertrophic agents; settings: 24 hour treatment; PE 100 μM, PMA 100 nM, PGF2α 1 μM, NCS 10%
[2] = tested on: RUP41 transcript in neonatal rat ventricular myocytes (NRVMs); test: RT-PCR of RUP41 transcript in NRVMs treated with hypertrophic agents; format: cell-based; settings: 24 hours after addition to media; phenylephrine 100 μM, newborn calf serum 10%
Experimental: Total RNA isolated from NRVMs as described above was used as a template for generation of reverse transcribed DNA (RT-DNA) using the RT for PCR kit (Becton Dickenson) according to manufacturers instructions. RUP41 expression was detected in RT-DNA samples by PCR. PCR conditions were 96° C. for 2 min, followed by 30 cycles of 96° C. for 30 sec, 55° C. for 30 sec, and 72° C. for 2 min, followed by 72° C. for 10 min. 20 μl of the reaction was loaded onto 1.5% agarose gel to analyze the RT-PCR products.

Molecule	RUP41 mRNA expression (Northern blot) [1]	RUP41 transcript levels (RT-PCR) [2]
CCCCCCCCCCCCCC(=O)O[C@@H]1[C@@H](C)[C@@]2(O)[C@@H](C=C(CO)C[C@]3(O)C(=O)C(C)=C[C@@H]23)[C@@H]2C(C)(C)[C@]12OC(C)=O [phorbol 12-myristate 13-acetate]	decreased level	
CNC[C@H](O)c1cccc(O)c1 [phenylephrine]	decreased level	drop dramatically
prostaglandin F2α	decreased level	
